Where “and” joins values, the source holds several entries; their conditions need not be identical. Equal entries are not always repeated.
Experiments:
CYP2C9 = CYP2C9 (Homo sapiens, UniProt P11712); assay: Kinetic analysis of CK metabolism by recombinant CYP2C9; format: in vitro ADME; parameters: purchased Cypex Ltd. (U.K.); conditions: recombinant CYP2C9 10 pmol, CK 10–100 μM
Description: (§1) The method was conducted according to our previous study with some modifications. The CYP isoform-specific probe reactions used were phenacetin O-deethylation (for CYP1A2), coumarin 7-hydroxylation (for CYP2A6), tolbutamide 4-hydroxylation (for CYP2C9), metoprolol α-hydroxylation (for CYP2D6), chlorzoxazone 6-hydroxylation (for CYP2E1),S-Mephenytoin 4-hydroxylation (for CYP2C19), and midazolam 1-hydroxylation (for CYP3A4). The kinetic study of CK was conducted with HLMs. A 0.2 mL incubation mixture that consisted of CK (as a substrate), the HLMs (0.5 mg/mL) or CYP isoforms (10 pmol), and 0.1 M sodium phosphate buffer (pH 7.4) was pre-warmed for 5 min at 37°C. The reaction was initiated by the addition of 1 mg/mL triphosphopyridine nucleotide (NADPH). […]
(§2) The kinetic parameters for the metabolism of CK were determined by incubating increasing concentrations of CK (10–100 μM) at 37°C with the HLMs and NADPH under the incubation conditions as described in detail previously. The equation of CK reaction velocity (V) in the HLMs or CYP isoforms is expressed as V = (C0–Ct)/T/Cp, where C0and Ct are the initial and final concentrations of CK in the incubation solution, respectively, T is the incubation time (min), and Cp is the protein concentration (mg/mL or nmol). All values were expressed as the mean±standard deviation (SD). […]

CYP3A4 = CYP3A4 (Homo sapiens, UniProt P08684); assay: Kinetic analysis of CK metabolism by recombinant CYP3A4; format: in vitro ADME; parameters: purchased Cypex Ltd. (U.K.); conditions: recombinant CYP3A4 10 pmol, CK 10–100 μM
CYP3A4, sequence (P08684 whole entry): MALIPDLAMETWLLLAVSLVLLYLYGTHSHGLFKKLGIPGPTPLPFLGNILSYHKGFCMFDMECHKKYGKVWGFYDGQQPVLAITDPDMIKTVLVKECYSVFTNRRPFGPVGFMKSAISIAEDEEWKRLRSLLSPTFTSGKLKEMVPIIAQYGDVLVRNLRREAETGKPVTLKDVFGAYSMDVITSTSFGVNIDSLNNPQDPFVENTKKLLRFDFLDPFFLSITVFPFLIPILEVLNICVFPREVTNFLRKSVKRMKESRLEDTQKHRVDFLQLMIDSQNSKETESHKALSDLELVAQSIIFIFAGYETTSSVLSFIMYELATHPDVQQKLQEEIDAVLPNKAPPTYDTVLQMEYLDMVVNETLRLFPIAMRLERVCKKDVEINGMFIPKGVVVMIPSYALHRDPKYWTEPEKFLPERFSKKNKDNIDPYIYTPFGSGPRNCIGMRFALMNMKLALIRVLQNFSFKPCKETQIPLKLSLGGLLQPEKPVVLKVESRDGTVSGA
Description: as §1, §2

CYP2C9, sequence (P11712 whole entry, canonical isoform): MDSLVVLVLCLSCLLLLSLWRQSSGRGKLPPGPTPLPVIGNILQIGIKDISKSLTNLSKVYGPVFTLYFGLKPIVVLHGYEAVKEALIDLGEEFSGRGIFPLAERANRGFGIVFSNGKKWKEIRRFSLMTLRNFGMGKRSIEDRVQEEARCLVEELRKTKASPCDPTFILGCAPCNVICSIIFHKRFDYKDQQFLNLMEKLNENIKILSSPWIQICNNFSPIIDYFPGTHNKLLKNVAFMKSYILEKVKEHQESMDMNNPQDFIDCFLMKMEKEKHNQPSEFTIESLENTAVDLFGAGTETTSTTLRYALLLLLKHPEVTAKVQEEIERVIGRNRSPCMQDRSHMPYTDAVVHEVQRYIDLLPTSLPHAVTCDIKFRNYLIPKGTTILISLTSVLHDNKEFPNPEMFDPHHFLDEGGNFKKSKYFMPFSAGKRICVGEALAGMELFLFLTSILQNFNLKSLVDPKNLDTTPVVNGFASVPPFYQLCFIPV

## CC(C)=CCC[C@](C)(OC1O[C@H](CO)[C@@H](O)[C@H](O)[C@H]1O)[C@H]1CC[C@]2(C)[C@@H]1[C@H](O)C[C@@H]1[C@@]3(C)CC[C@H](O)C(C)(C)[C@@H]3CC[C@]12C (stereo partly drawn) [CK, 20-O-β-(D-glucopyranosyl)-20(S)-protopanaxadiol]
CYP2C9
  Vmax of CK metabolism: 0.45±0.05 nmol/nmol P450/min and 0.4537 nmol/nmol P450/min
CYP3A4
  Vmax of CK metabolism: 0.68±0.04 nmol/nmol P450/min and 0.6756 nmol/nmol P450/min
